According to US9987277B2, “Carboxamide 4-[(4-pyridyl)amino] pryimidines for the treatment of hepatitis C” (Janssen Sciences Ireland UC, priority 2006, dated 2018):

Tested on: HCV type 1b replicon (NS3-NS5B) in Huh-7 luc/neo cells
Test: HCV replicon assay (Huh-Luc luciferase)
Format: cell-based
Conditions: Hepatitis C virus, Huh-7, 72 h, three days incubation, luciferase activity
Text: The compounds of formula (I) were examined for activity in the inhibition of HCV RNA replication in a cellular assay. […] The cellular assay was based on a bicistronic expression construct, as described by Lohmann et al. (1999) Science vol. 285 pp. 110-113 with modifications described by Krieger et al. (2001) Journal of Virology 75: 4614-4624, in a multi-target screening strategy. In essence, the method was as follows.
The assay utilized the stably transfected cell line Huh-7 luc/neo (hereafter referred to as Huh-Luc). This cell line harbors an RNA encoding a bicistronic expression construct comprising the wild type NS3-NS5B regions of HCV type 1b translated from an Internal Ribosome Entry Site (IRES) from encephalomyocarditis virus (EMCV), preceded by a reporter portion (FfL-luciferase), and a selectable marker portion (neo^R, neomycine phosphotransferase). The construct is bordered by 5′ and 3′ NTRs (non-translated regions) from HCV type 1b. Continued culture of the replicon cells in the presence of G418 (neo^R) is dependent on the replication of the HCV RNA. The stably transfected replicon cells that express HCV RNA, which replicates autonomously and to high levels, encoding inter alia luciferase, are used for screening the antiviral compounds.
The replicon cells were plated in 384 well plates in the presence of the test and control compounds which were added in various concentrations. Following an incubation of three days, HCV replication was measured by assaying luciferase activity (using standard luciferase assay substrates and reagents and a Perkin Elmer ViewLux™ ultraHTS microplate imager). Replicon cells in the control cultures have high luciferase expression in the absence of any inhibitor. The inhibitory activity of the compound on luciferase activity was monitored on the Huh-Luc cells, enabling a dose-response curve for each test compound. EC50 values were then calculated, which value represents the amount of the compound required to decrease by 50% the level of detected luciferase activity, or more specifically, the ability of the genetically linked HCV replicon RNA to replicate.
The following Table 1 lists compounds that were tested for activity in the inhibition of HCV RNA replication in a cellular assay according to the procedure described above. Table 1 provides as well structure characterization data for the compounds of formula (I) as described herein. […] In each case, the expected parent ion was observed, and the Table further provides the LC conditions under which the mass spectrum was measured as well as the retention time of the observed product.

| SMILES | EC50 |
| --- | --- |
| COc1cnc(-c2cc(Cl)ccc2F)nc1Nc1ccncc1C(=O)NCCCN1CCCC1=O [compound 1] | 0.084 µM |
| COc1cnc(-c2cc(Cl)ccc2F)nc1Nc1ccncc1C(=O)NCC(F)(F)F [compound 2] | 1.16 µM |
| COc1cnc(-c2cc(Cl)ccc2F)nc1Nc1ccncc1C(=O)NC[C@H]1CCCO1 [compound 3] | 2.64 µM |
| CCOC(=O)CNC(=O)c1cnccc1Nc1nc(-c2cc(Cl)ccc2F)ncc1OC [compound 4] | 4.62 µM |
| COc1cnc(-c2cc(Cl)ccc2F)nc1Nc1ccncc1C(=O)NCCCn1ccnc1 [compound 5] | 0.921 µM |
| O=C(NC1CC1)c1cnccc1Nc1nc(-c2cc(Cl)ccc2F)ncc1C1CCCC1 [compound 6] | 12.7 µM |
| O=C(NCCO)c1cnccc1Nc1nc(-c2cc(Cl)ccc2F)ncc1C1CCCC1 [compound 8] | 16.4 µM |
| COc1cnc(-c2cc(Cl)ccc2F)nc1Nc1ccncc1C(=O)NCCCN1CCOCC1 [compound 9] | 1.1 µM |
| COc1cnc(-c2cc(Cl)ccc2F)nc1Nc1ccncc1C(=O)NCCNCCO [compound 10] | 1.48 µM |
| COc1cnc(-c2cc(Cl)ccc2F)nc1Nc1ccncc1C(=O)NCCNCC(C)O (stereo not drawn) [compound 11] | 1.14 µM |
| COc1cnc(-c2cc(Cl)ccc2F)nc1Nc1ccncc1C(=O)NCCCN1CCCCC1C (stereo not drawn) [compound 13] | 0.55 µM |
| COc1cnc(-c2cc(Cl)ccc2F)nc1Nc1ccncc1C(=O)NCCN [compound 14] | 3.67 µM |
